Laboratory results from publication PMC3559007 (Neuron, 2013).
Changes are numbered by the printed parent chain. Read-outs that look alike come from different tables or passages of the source. Each block holds one compound with its values, some of them ahead of it.

How the values were obtained:
human Hv1 channel [1] = biological target: T1, human Hv1 channel (Homo sapiens, UniProt Q96D96); settings: cited from earlier work; for Inhibition of Hv1 channel by intracellular quaternary ammonium ions: ref Musset et al., 2011, Ramsey et al., 2006
T1 sequence (Q96D96 1-273): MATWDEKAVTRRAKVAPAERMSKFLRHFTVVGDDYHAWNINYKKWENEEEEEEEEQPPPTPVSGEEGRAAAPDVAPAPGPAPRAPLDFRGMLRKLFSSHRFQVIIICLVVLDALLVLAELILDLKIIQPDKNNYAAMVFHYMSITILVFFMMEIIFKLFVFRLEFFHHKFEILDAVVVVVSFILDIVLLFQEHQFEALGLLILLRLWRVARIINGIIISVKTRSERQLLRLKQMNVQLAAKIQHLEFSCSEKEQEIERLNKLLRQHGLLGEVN

human Hv1 channel [2] = biological target: T1, human Hv1 channel; assay: Inside-out patch clamp of proton currents, Xenopus oocytes expressing human Hv1; type: cell-based; settings: for Inhibition of Hv1 proton current compared with 2GBI: 200 µM intracellular, inside-out patch, +120 mV
[3] = tested on: F150A-WT linked Hv1 heterodimers; assay: Inside-out patch clamp, partial block of linked F150A-WT Hv1 heterodimers; type: cell-based, human; settings: 2 µM 2GBI, +120 mV
Hv1 F150A = biological target: T2, Hv1 F150A (Homo sapiens, UniProt Q96D96, F150A); assay: Inside-out patch clamp, inhibition of Hv1 F150A mutant; type: cell-based; settings: 1 µM 2GBI, 500 µM guanidinium, 7.9 mM magnesium, intracellular
T2 sequence (Q96D96 1-273 F150A): T1 sequence (Q96D96 1-273) with F150A

Structure (SMILES): C[N+](C)(C)C [TMA^+]
- Inhibition of Hv1 channel by intracellular quaternary ammonium ions (human Hv1 channel [1]): do not inhibit

Structure (SMILES): N=C(N)Nc1nc2ccccc2s1 [Compound 12, 1-(1,3-benzothiazol-2-yl)guanidine]
- Inhibition of Hv1 proton current compared with 2GBI (human Hv1 channel [2]): almost as effectively as 2GBI

Structure (SMILES): N=C(N)Nc1nc2ccccc2[nH]1 [Compound 7, 2-guanidinobenzimidazole]
- Total inhibition of the initial current [3]: ~ 50%
- Estimated fraction of wild type subunits blocked ([3]; estimated from dissociation constants of homodimers): ~6%

Structure (SMILES): CC[N+](CC)(CC)CC [TEA^+, tetraethylammonium]
- Inhibition of Hv1 channel by intracellular quaternary ammonium ions (human Hv1 channel [1]): do not inhibit

The next lines start with results.

- Inhibition of Hv1 proton current compared with 2GBI (human Hv1 channel [2]): not as effective as 2GBI
Structure (SMILES): CN(C)C(=N)N=C(N)N [Compound 8, metformin, reference compound]

- Inhibition of Hv1 proton current compared with 2GBI (human Hv1 channel [2]): not as effective as 2GBI
Structure (SMILES): Cc1nc(NC(=N)N)nc2ccccc12 [Compound 9, 2-guanidino-4-methylquinazoline]

- IC50 (human Hv1 channel [2]): ~9 mM
Structure (SMILES): N=C(N)Nc1nc2ccccc2o1 [Compound 11, 1-(1,3-benzoxazol-2-yl)guanidine]

- Inhibition of Hv1 proton current compared with 2GBI (human Hv1 channel [2]): not as effective as 2GBI
Structure (SMILES): CC(=O)N(C(=N)NC(=N)N)c1ccccc1 [Compound 10, N-(guanidino-imino-methyl)-N-phenylacetamide]

- IC50 (human Hv1 channel [2]; wild type Hv1, GBOZ curve extrapolated above solubility limit): ~9 mM
- Difference in binding affinity between F150A and wild type channels (Hv1 F150A): no difference
Structure (SMILES): [Mg+2] [magnesium, reference compound]

- Concentration range effective at inhibiting proton currents (human Hv1 channel [2]): millimolar concentration range
- Difference in binding affinity between F150A and wild type channels (Hv1 F150A): much smaller difference
Structure (SMILES): N=C(N)N [Compound 1, Guanidine]
- Inhibition of Hv1 and effect on activation curve (human Hv1 channel [1]; ref Tombola et al., 2008): inhibit Hv1 without shifting the channel’s activation curve
